Laboratory results published in PubChem BioAssay (NCI).
Several values for one entry are separate records, joined by “and”; a condition that tells them apart may be missing. Identical values can stand only once.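 All cell lines were grown in 96-well plates and treated with compound for 48 hours. At the GI50, growth is halved. TGI: total growth inhibition.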

Experiments:
Assay in all cases: NCI-60 cell line screen, 48 h
DMS 114 small cell lung = test system: DMS 114 small cell lung
DMS 273 small cell lung = test system: DMS 273 small cell lung
KM20L2 colon = test system: KM20L2 colon
M19-MEL melanoma = test system: M19-MEL melanoma
BT-549 breast = test system: BT-549 breast
DU-145 prostate = test system: DU-145 prostate
HS 578T breast = test system: HS 578T breast
MCF7 breast = test system: MCF7 breast
MDA-MB-231 breast = test system: MDA-MB-231 breast
PC-3 prostate = test system: PC-3 prostate
SNB-78 CNS = test system: SNB-78 CNS

SMILES | TGI (DMS 114 small cell lung) | TGI (DMS 273 small cell lung) | TGI (KM20L2 colon) | TGI (M19-MEL melanoma) | TGI (SNB-78 CNS) | further results
CC(C)C1CN(C(=O)OCc2ccccc2)C2N1C(=O)C2(C)OCc1ccccc1 (stereo not drawn) | > 100 µM | > 100 µM | > 100 µM | > 100 µM | – | –
Nc1nc(Cl)nc2c1ncn2C1CC(O)C(CO)O1 (stereo not drawn) | – | 47.1 µM | > 100 µM | > 100 µM | > 100 µM | GI50 (BT-549 breast): 0.345 µM; TGI (BT-549 breast): > 100 µM; GI50 (DU-145 prostate): 1.81 µM; TGI (DU-145 prostate): > 100 µM; GI50 (HS 578T breast): > 100 µM; TGI (HS 578T breast): > 100 µM; TGI (MCF7 breast): > 100 µM; GI50 (MDA-MB-231 breast): > 79.8 µM; TGI (MDA-MB-231 breast): > 100 µM; GI50 (PC-3 prostate): > 100 µM; TGI (PC-3 prostate): > 100 µM
CN(C)CCNC(=O)Cc1ccccc1Nc1c(Cl)cccc1Cl | 33.1 µM | 30.5 µM | 13.9 µM | 28.5 µM | 38.7 µM | –
CC12c3ccccc3C(OC=O)(c3ccccc31)C1(C)c3ccccc3C2(OC=O)c2ccccc21 | > 100 µM | > 100 µM | > 100 µM | > 100 µM | > 100 µM | –
CCCCCCCCCCCC[N+]12CC[N+](CCN)(CC1)CC2 | > 100 µM | 31.9 µM | > 100 µM | > 100 µM | > 100 µM | –
COCOCCC#CCO | > 100 µM | – | > 100 µM | – | > 100 µM | –
Cc1cc(C)nc(NS(=O)(=O)c2ccc(Nc3c4ccccc4nc4c(C(=O)N5CCN(CCO)CC5)cccc34)cc2)n1 | > 100 µM | > 100 µM | > 100 µM | > 100 µM | > 100 µM | –
NC(=S)N/N=C/c1ncccc1O | – | 5.96 µM | 76.5 µM | 16.9 µM and 39.7 µM | > 1000 µM | GI50 (BT-549 breast): 1.58 µM; TGI (BT-549 breast): > 1000 µM; GI50 (DU-145 prostate): 1.46 µM and 0.77 µM; TGI (DU-145 prostate): 17.1 µM and > 114 µM; TGI (HS 578T breast): 835 µM; GI50 (KM20L2 colon): 3.74 µM; GI50 (M19-MEL melanoma): 3.48 µM; GI50 (MCF7 breast): 2.55 µM; TGI (MCF7 breast): > 37.5 µM and 183 µM; TGI (MDA-MB-231 breast): > 1000 µM; GI50 (PC-3 prostate): 0.895 µM; TGI (PC-3 prostate): > 1000 µM; GI50 (SNB-78 CNS): 64.7 µM
CCCCNCCCNCCCNC(=O)c1csc(-c2csc(CCNC(=O)C(NC(=O)C(C)C(O)C(C)NC(=O)C(NC(=O)c3nc(C(CC(N)=O)NCC(N)C(N)=O)nc(N)c3C)C(OC3OC(CO)C(O)C(O)C3OC3OC(CO)C(O)C(OC(N)=O)C3O)c3cnc[nH]3)C(C)O)n2)n1 (stereo not drawn) | 8.73 µM | 2.97 µM | > 100 µM | > 100 µM | > 100 µM | TGI (BT-549 breast): > 50 µM; TGI (DU-145 prostate): 50 µM; TGI (HS 578T breast): 50 µM; TGI (MCF7 breast): 37.7 µM; TGI (MDA-MB-231 breast): 50 µM; TGI (PC-3 prostate): 50 µM
Cc1nc2c(N)ncnc2o1 | > 100 µM | > 100 µM | > 100 µM | > 100 µM | > 100 µM | –
CCOc1ccc(OCC(=O)O)c2c1CCCC2=O | > 100 µM | > 100 µM | – | > 100 µM | > 100 µM | –
Oc1oc(C(=C2N=c3ccccc3=N2)c2ccc(Cl)cc2)c(O)c1-c1ccc(Cl)cc1 | 5.52 µM | 19.1 µM | 10.2 µM | – | > 100 µM | –
O=C1C=C(c2c(O)ccc3ccccc23)c2cc(O)ccc2C1=O | 19.6 µM | 30.8 µM | 38.7 µM | 9.68 µM | 42.5 µM | –
COc1ccc(/C=C\c2cc(OC)c(OC)c(OC)c2)cc1OCC(=O)O | > 100 µM | 75.1 µM | > 100 µM | > 100 µM | > 100 µM | TGI (BT-549 breast): > 100 µM; TGI (DU-145 prostate): 47.2 µM; TGI (HS 578T breast): 9.25 µM; TGI (MCF7 breast): > 100 µM; TGI (MDA-MB-231 breast): > 92.7 µM; TGI (PC-3 prostate): > 91.3 µM
O=C1C=C(Nc2ccc(Cl)cc2C(=O)c2ccccc2)c2ccccc2C1=O | > 100 µM | > 100 µM | > 100 µM | – | > 100 µM | –
CN1Nc2ccccc2CC1=O | > 100 µM | > 100 µM | > 100 µM | > 100 µM | > 100 µM | –
Cc1cc2c(cc1C)[n+](=O)cc(C(=O)C/C(=N/NC(=S)NN)C(=O)Nc1cccc(C(F)(F)F)c1)n2[O-] | > 100 µM | > 100 µM | – | > 100 µM | > 100 µM | –
COc1ccc(NC(=O)CSc2nnc(-c3ccc(NC(C)=O)cc3)o2)cc1 | 19.3 µM | 33.7 µM | 36.8 µM | 55.7 µM | 44 µM | –
CCCCCCCC(=O)OCC1OC(n2cc(F)c(=O)[nH]c2=O)C(N)C(OC(=O)CCCCCCC)C1O (stereo not drawn) | – | 30.8 µM | 33.7 µM | 36 µM | 39.5 µM | –

SMILES | TGI (DMS 114 small cell lung) | TGI (DMS 273 small cell lung) | TGI (KM20L2 colon) | TGI (M19-MEL melanoma) | TGI (SNB-78 CNS) | further results
CC(=O)N/C(=C\c1ccccc1/C=C(\NC(C)=O)c1nc2cc(C)c(C)cc2[nH]1)c1nc2cc(C)c(C)cc2[nH]1 | 11.2 µM | 47.6 µM | > 100 µM | 85.8 µM | > 100 µM | –
C[N+](C)(C)CC(=O)N/N=C(/Cc1cc(=O)oc2cc(O)ccc12)C(=O)Nc1ccc(Cl)cc1 | > 100 µM | – | > 100 µM | > 100 µM | – | –
COc1ccc2c(=O)oc3c(OC)cc(CCN(C)C)c4c(=O)oc1c2c34 | 24.9 µM | 31.5 µM | 28.1 µM | 28.1 µM | 35.9 µM | TGI (BT-549 breast): 15.4 µM; TGI (DU-145 prostate): 15.8 µM; TGI (HS 578T breast): 24 µM; TGI (MCF7 breast): 12.9 µM; TGI (MDA-MB-231 breast): 16.1 µM; TGI (PC-3 prostate): 29.4 µM
O=C1C/C(Br)=C\c2ccccc2-c2ccccc21 | 6.58 µM | 7.65 µM | 8.28 µM | 4.65 µM | 16.9 µM | –
CCOc1ccc(NC(=O)CC2SC(=Nc3ccc(C)cc3C)NC2=O)cc1 (stereo not drawn) | – | > 100 µM | > 100 µM | > 100 µM | > 100 µM | –
CC1=C(C(=O)Nc2ccccc2)C(c2ccc(Cl)c(Cl)c2)C(C(=O)Nc2ccccc2)=C(C)N1 | 24.8 µM | 27.5 µM | 29.8 µM | 25.6 µM | 53.8 µM | –
O=S(=O)(OI(OI(OS(=O)(=O)C(F)(F)F)c1ccccc1)c1ccccc1)C(F)(F)F | 55 µM | > 100 µM | > 100 µM | > 100 µM | > 100 µM | –
O=Cc1cc2c(cc1-c1cc3c(cc1C=O)OCO3)OCO2 | > 100 µM | > 100 µM | > 100 µM | > 100 µM | > 100 µM | –
O=c1[nH]c(=O)n(C2CC(O)C(CO)O2)cc1OS(=O)(=O)C(F)(F)F (stereo not drawn) | > 100 µM | > 100 µM | > 100 µM | > 100 µM | – | –
O/N=C1\CCCCC1C(NO)c1ccccc1 (stereo not drawn) | > 100 µM | > 100 µM | > 100 µM | > 100 µM | > 100 µM | –
c1ccc2c(c1)CCc1c(-c3ccncc3)n[nH]c1-2 | 51.7 µM | 52.1 µM | 45.9 µM | 72.8 µM | > 100 µM | –
COc1cc(C[P+](c2ccccc2)(c2ccccc2)c2ccccc2)cc(OC)c1OC | > 100 µM | > 100 µM | > 100 µM | > 100 µM | > 100 µM | –
COC(=N)c1csc(C2OC(CO)C(O)C2O)n1 (stereo not drawn) | > 100 µM | > 100 µM | > 100 µM | > 100 µM | > 100 µM | –
CCCN(CCC)c1c([N+](=O)[O-])cc(C(=O)N(CC)CC)cc1[N+](=O)[O-] | 42.8 µM | 43.7 µM | 53.1 µM | 47.8 µM | > 100 µM | –
CCOC(=O)C(Br)=C1OC(=O)c2ccccc2-c2ccccc21 (mixture of isomers) | 32.2 µM | 29 µM | – | 31 µM | 52.3 µM | –
CCCCCCCCc1cc2c(O)c(c1)Cc1cc(CCCCCCCC)cc(c1O)Cc1cc(CCCCCCCC)cc(c1O)Cc1cc(CCCCCCCC)cc(c1O)Cc1cc(CCCCCCCC)cc(c1O)Cc1cc(CCCCCCCC)cc(c1O)C2 | > 100 µM | – | > 100 µM | – | > 100 µM | –
FC(F)(F)c1ccc2nc(NCc3ccccc3)c(-c3ccccc3)nc2c1 | – | > 100 µM | > 100 µM | > 100 µM | > 100 µM | –
Nc1c(S(=O)(=O)c2ccc(Cl)cc2)c2nc3ccccc3nc2n2ccnc12 | > 100 µM | > 100 µM | – | > 100 µM | > 100 µM | –
